# According to patent publication US20180042223A1, “COMPOSITION COMPRISING A HYDROGEL AND PESTICIDES” (priority 2014, published 2018):
# System: spider mite (Tetranychus uricae)
# Assay: Effectiveness of pesticide with NovioHelix hydrogel adjuvant: dead percentage of spider mites on paprika plants
# Format: in vivo
# Settings: day 5 after treatment; infected paprika plants; applied till run off; Noviohelix 3 mg/mL where used
# Description: Paprika plants infected with spider mite (Tetranychus uricae) were used as experiment samples. All paprika (±20cm) were artificially infected with spiders 5 days before the experiments. The insecticide Spiromesifen (Spiromesifen, 240 g/l, Oberon) was used to against spiders. Noviohelix (3 mg/mL) was used as an adjuvant. All samples were applied with pesticide until ‘till run off’ (the first droplet of a composition fall off the leave). The effectiveness of Spiromesifen either with or without NovioHelix was determined based on the dead percentage of spiders after treatment. The spiders both in mature and immature phases were counted before and at day 5 after experiment.
smiles,measurement,value
Cc1cc(C)c(C2=C(OC(=O)CC(C)(C)C)C3(CCCC3)OC2=O)c(C)c1 [Spiromesifen],% dead (dead percentage of spider),84.8%
